Legend:
[1] = xn = mol fraction of the nth substance listed; conditions: 101 kPa, Liquid; for viscosity: Stabinger Viscometer; for mass density: Vibrating tube method
[2] = refractive index (Na D-line) (dimensionless); xn = mol fraction of the nth substance listed; conditions: 101 kPa, Liquid, Standard Abbe refractometry

CC[n+]1ccn(C)c1.N[C@@H](CO)C(=O)[O-] [3-ethyl-1-methyl-1H-imidazolium L-serinate] + CCn1cc[n+](C)c1.N#C[C-](C#N)C#N
Conditions | mass density, [1] [kg/m3] | refractive index, [2] | viscosity, [1] [mPa·s]
293.15 K, x2 = 0 | 1206.8 | 1.52699 | 3796.8
293.15 K, x2 = 0.2502 | 1177.2 | 1.52075 | 586.84
293.15 K, x2 = 0.5005 | 1141.8 | 1.51865 | 168.52
293.15 K, x2 = 0.7497 | 1112.9 | 1.51552 | 42.01
298.15 K, x2 = 0 | 1203.7 | 1.52565 | 2235.5
298.15 K, x2 = 0.2502 | 1173.6 | 1.51929 | 384.17
298.15 K, x2 = 0.5005 | 1138.4 | 1.51718 | 120.68
298.15 K, x2 = 0.7497 | 1109.3 | 1.5139 | 33.37
303.15 K, x2 = 0 | 1200.5 | 1.52429 | 1376.2
303.15 K, x2 = 0.2502 | 1170.1 | 1.51784 | 261.07
303.15 K, x2 = 0.5005 | 1135 | 1.51563 | 88.95
303.15 K, x2 = 0.7497 | 1105.8 | 1.51228 | 26.98
308.15 K, x2 = 0 | 1197.3 | 1.52294 | 882.82
308.15 K, x2 = 0.2502 | 1166.8 | 1.51636 | 183.69
308.15 K, x2 = 0.5005 | 1131.7 | 1.51409 | 67.28
308.15 K, x2 = 0.7497 | 1102.3 | 1.51064 | 22.2
313.15 K, x2 = 0 | 1194 | 1.52159 | 588.27
313.15 K, x2 = 0.2502 | 1163.5 | 1.51489 | 133.41
313.15 K, x2 = 0.5005 | 1128.4 | 1.51254 | 52.28
313.15 K, x2 = 0.7497 | 1098.9 | 1.50899 | 18.36
318.15 K, x2 = 0 | 1190.9 | 1.52022 | 405.12
318.15 K, x2 = 0.2502 | 1160.5 | 1.51343 | 98.94
318.15 K, x2 = 0.5005 | 1125.1 | 1.51099 | 41.25
318.15 K, x2 = 0.7497 | 1095.6 | 1.50736 | 15.72
323.15 K, x2 = 0 | 1187.8 | 1.51887 | 287.6
323.15 K, x2 = 0.2502 | 1157.3 | 1.51199 | 75.39
323.15 K, x2 = 0.5005 | 1121.8 | 1.50943 | 33.28
323.15 K, x2 = 0.7497 | 1092.2 | 1.50574 | 13.48
328.15 K, x2 = 0 | 1184.7 | 1.51755 | 209.91
328.15 K, x2 = 0.2502 | 1154 | 1.51051 | 58.75
328.15 K, x2 = 0.5005 | 1118.5 | 1.50784 | 27.29
328.15 K, x2 = 0.7497 | 1088.9 | 1.50408 | 11.68
333.15 K, x2 = 0 | 1181.7 | 1.5162 | 157.29
333.15 K, x2 = 0.2502 | 1150.8 | 1.50902 | 46.9
333.15 K, x2 = 0.5005 | 1115.1 | 1.50632 | 22.78
333.15 K, x2 = 0.7497 | 1085.6 | 1.50253 | 10.07
338.15 K, x2 = 0 | 1178.7 | 1.51486 | 119.86
338.15 K, x2 = 0.2502 | 1147.6 | 1.50755 | 37.79
338.15 K, x2 = 0.5005 | 1111.9 | 1.50475 | 19.18
338.15 K, x2 = 0.7497 | 1082.2 | 1.50093 | 9.03
343.15 K, x2 = 0 | 1175.7 | 1.51353 | 93.36
343.15 K, x2 = 0.2502 | 1144.4 | 1.50611 | 31.01
343.15 K, x2 = 0.5005 | 1108.6 | 1.50324 | 16.37
343.15 K, x2 = 0.7497 | 1078.9 | 1.49932 | 8.03
348.15 K, x2 = 0 | 1172.8 | 1.5122 | 74.03
348.15 K, x2 = 0.2502 | 1141.2 | 1.50459 | 25.75
348.15 K, x2 = 0.5005 | 1105.2 | 1.50173 | 14.12
348.15 K, x2 = 0.7497 | 1075.7 | 1.49774 | 7.19
353.15 K, x2 = 0 | 1169.7 | 1.51084 | 59.91
353.15 K, x2 = 0.2502 | 1138 | 1.50318 | 21.14
353.15 K, x2 = 0.5005 | 1101.8 | 1.50018 | 12.31
353.15 K, x2 = 0.7497 | 1072.3 | 1.49615 | 6.36

Reference: the NIST ThermoML archive (doi:10.1021/acs.jced.5b00242)
